The results in this text go back to ChEMBL document CHEMBL1157601, “1-Alkyl-4-phenyl-6-alkoxy-1H-quinazolin-2-ones: a novel series of potent calcium-sensing receptor antagonists” (J Med Chem, 2010).

For series [1], the target named is T1, Extracellular calcium-sensing receptor (Homo sapiens, UniProt P41180).
T1 sequence (P41180 whole entry): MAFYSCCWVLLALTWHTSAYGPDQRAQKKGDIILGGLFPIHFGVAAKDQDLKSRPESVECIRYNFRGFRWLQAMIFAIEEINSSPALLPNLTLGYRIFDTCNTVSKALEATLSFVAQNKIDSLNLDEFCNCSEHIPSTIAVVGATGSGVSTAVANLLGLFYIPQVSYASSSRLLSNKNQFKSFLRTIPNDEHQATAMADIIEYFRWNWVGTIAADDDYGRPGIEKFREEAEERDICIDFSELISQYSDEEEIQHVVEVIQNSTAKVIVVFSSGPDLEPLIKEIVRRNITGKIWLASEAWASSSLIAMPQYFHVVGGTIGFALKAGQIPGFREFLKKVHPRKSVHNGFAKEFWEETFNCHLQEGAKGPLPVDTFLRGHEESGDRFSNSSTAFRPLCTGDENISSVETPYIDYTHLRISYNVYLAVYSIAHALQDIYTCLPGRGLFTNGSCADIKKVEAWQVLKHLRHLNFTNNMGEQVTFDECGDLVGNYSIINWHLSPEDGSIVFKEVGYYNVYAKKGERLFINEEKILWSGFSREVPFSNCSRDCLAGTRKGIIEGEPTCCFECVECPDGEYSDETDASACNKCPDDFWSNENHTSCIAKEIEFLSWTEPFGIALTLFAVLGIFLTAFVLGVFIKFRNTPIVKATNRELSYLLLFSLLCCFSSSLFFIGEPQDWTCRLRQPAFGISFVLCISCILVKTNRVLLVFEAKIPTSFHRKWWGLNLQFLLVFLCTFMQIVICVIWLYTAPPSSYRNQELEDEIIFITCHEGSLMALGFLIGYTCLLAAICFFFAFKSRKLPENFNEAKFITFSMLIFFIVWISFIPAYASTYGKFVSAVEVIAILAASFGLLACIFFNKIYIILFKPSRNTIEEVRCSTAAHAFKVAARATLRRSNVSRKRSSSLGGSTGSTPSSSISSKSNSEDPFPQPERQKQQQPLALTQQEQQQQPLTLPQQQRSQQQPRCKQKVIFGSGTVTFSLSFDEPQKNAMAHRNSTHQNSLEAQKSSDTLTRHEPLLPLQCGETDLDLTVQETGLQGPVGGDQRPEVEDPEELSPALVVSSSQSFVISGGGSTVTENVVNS
The series can be described thus: Antagonist activity at human CaSR expressed in CCL39 cells assessed as inhibition of extracellular calcium-induced intracellular calcium transient by FLIPR assay. It is filed as functional, cell-based. In general terms: A change in cytosolic calcium serves as a functional read-out for many receptors and channels.

Series [2] can be described thus: Aqueous solubility at pH 6.8. It is filed as physicochemical.
Series [3] can be described thus: Aqueous solubility at pH 1.0. It is filed as physicochemical.
The nature of series [4]: Oral bioavailability in rat. As to conditions: in vivo. The series is classed as ADME, organism-based.
The subject of series [5] is Rattus norvegicus. The series can be described thus: Induction of PTH release in iv dosed Wistar rat by radioimmunoassay. It is filed as functional, organism-based.
Series [6] deals with Rattus norvegicus. Briefly: Induction of PTH release in Wistar rat assessed as PTH Cmax in blood at 30 mg/kg, po by radioimmunoassay. It is filed as functional.
The subject of series [7] is Canis familiaris. The series can be described thus: Induction of PTH release in Beagle dog at 3 mg/kg, po by radioimmunoassay. It is filed as functional, Canis lupus familiaris.
The test system of series [8] is Rattus norvegicus. The series can be described thus: Induction of PTH release in Wistar rat assessed as PTH Cmax in blood at 3 mg/kg, po by radioimmunoassay. It is filed as functional.
In series [9] the test system is Canis familiaris. The series can be described thus: Induction of PTH release in Beagle dog assessed as PTH Cmax in blood at 0.3 mg/kg, po by radioimmunoassay. The series is classed as functional, Canis lupus familiaris.

Molecules are shown by their SMILES. Values after ≈ are worked out from the molar mass of the structure shown. Active and inactive are the calls of the source. No cut-off for these calls is given here.

One may read the IC50 as the midpoint of a concentration-inhibition curve. By solubility is commonly meant the concentration that dissolves in the medium under given conditions. A high value points to much dissolved substance. As usually defined, the bioavailability is the share of a dose that reaches the circulation, judged against a reference dose that is usually intravenous. In the case of `C#CCOc1ccc2c(c1)c(-c1ccc(C(C)C)cc1)nc(=O)n2C(C)C`, the IC50 in series [1] was found to be 9 nM. Besides, the solubility in series [2] and in series [3] was 20 µg/mL (≈ 55.5 µM) each time. This compound also gave a bioavailability in series [4] of 20%. For the same compound, in the series with Rattus norvegicus [5], the outcome was Active. Also, the Activity was 150 pgequiv/ml in the series with Rattus norvegicus [6], 50 pg·h/mL with Canis familiaris [7], 280 pgequiv/ml with Rattus norvegicus [8] and 300 pgequiv/ml in the series on Canis familiaris [9].
